Legend:
[1] = biological target: B-Raf (Homo sapiens, UniProt P15056); test: B-Raf kinase activity assay (AlphaScreen, biotin-MEK1 substrate); details: 100 μM ATP, 100 nM biotin-MEK1, 45 minutes at room temperature; read-out: Biochemical activity (IC50 μM) B-Raf
Procedure, shortened: (§1)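 AlphaScreen detection of phospho-MEK1 uses anti-phospho-MEK1/2 antibody and donor/acceptor beads, incubated 3 h. The kinase step runs 45 min at room temperature with 0.1 ng enzyme, 100 nM biotin-MEK1 and 100 μM ATP in 50 mM HEPES pH 7.0. IC50 is derived from eight compound concentrations.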

[2] = biological target: c-Raf-1 (Homo sapiens, UniProt P04049); test: c-Raf-1 kinase activity assay (AlphaScreen, biotin-MEK1 substrate); details: 100 μM ATP, 100 nM biotin-MEK1, 45 minutes at room temperature; read-out: Biochemical activity (IC50 μM) c-Raf-1
Procedure, shortened: as §1

[3] = test system: COLO205 colon adenocarcinoma (B-Raf V600E mutation); test: COLO205 cell growth inhibition (ATPlite luminescence); format: cell-based; details: Homo sapiens, COLO 205, 72 h, COLO205 cells, incubated 3 days with compound
Procedure: Compounds are assessed in a variety of cell based assays. For example human cell lines with B-Raf V600E mutation (A375 melanoma, SKMEL3 melanoma, and COLO205 colon adenocarcinoma), as well as tumorigenic cell lines with wild-type B-RAF (SW620 colon adenocarcinoma) or with Ras mutations (SKMEL2 melanoma and IPC298 melanoma). Similar assays may be used to assess additional tumorigenic cell lines with Ras mutations, including, but not limited to, M202, M207, M243, M244, M296, S117, HCT116, HCT15, DLD1, MiaPaCa, A549, NCI-H23, NCI-H460, HOP62, MDA-MB231, Hs-578T, HL60, MOLT-4, and CCRF-CEM.
On day 1, cells are counted, then centrifuged in a conical tube for 5 minutes at 1000 rpm. The supernatant is removed and cells are re-suspended as follows: • SW620 (ATCC catalog #CCL-27): resuspend in Leibovitz's L-15 medium, 2 mM L-glutamine, 10% fetal bovine serum to 6×10^4 cells/mL. • A375 (ATCC catalog #CRL-1619): resuspend in Dulbecco's modified Eagle's medium, 4 mM L-glutamine, 4.5 g/L D-glucose, 10% fetal bovine serum to 6×10^4 cells/mL. • COLO205 (ATCC catalog #CCL-222): resuspend in RPMI 1640, 2 mM L-glutamine, 1.5 g/L sodium bicarbonate, 4.5 g/L D-glucose, 10 mM HEPES, 1.0 mM sodium pyruvate, 10% fetal bovine serum to 6×10^4 cells/mL. • SKMEL2 (ATCC catalog #HTB-68): resuspend in Minimum Eagle essential medium, 2 mM L-glutamine, 1.5 g/L sodium bicarbonate, 0.1 mM non-essential amino acids, 1.0 mM sodium pyruvate, 10% fetal bovine serum to 6×10^4 cells/mL. • SKMEL3 (ATCC catalog #HTB-69): resuspend in McCoy's 5A medium, 1.5 mM L-glutamine, 15% fetal bovine serum to 6×10^4 cells/mL. • IPC298 (DSMZ catalog #ACC 251): resuspend in RPMI 1640, 2 mM L-glutamine, 10% fetal bovine serum to 6×10^4 cells/mL.
The cells are plated, 50 μL in each well of a 96-well dish (Corning 3610) and incubated at 37° C. in 5% CO2 overnight, cells plated to a final concentration of cells as follows:
On day 2, compound at a maximum concentration of 5 mM is serially diluted 1:3 (e.g. 10 μL with 30 μL dimethyl sulfoxide) for a total of 8 point titration with DMSO as a control. A 1 μL aliquot of each dilution point and control is added to 249 μL growth media and 50 μL is added to a well containing cells, providing 10 μM compound at the maximum concentration point. The cells are incubated for 3 days at 37° C. in 5% CO2.
On day 5, ATPlite 1 step Luminescence Assay System (Perkin Elmer #6016739) is brought to room temperature along with the cell cultures. ATPlite is added 25 μL to each well, shake for 2 minutes, and the cells are incubated at room temperature for 10 minutes, then luminescence is read on Safire reader. The measured luminescence correlates directly with cell number, such that the reading as a function of compound concentration is used to determine the IC50 value.
It is understood that the results of these assays may vary as assay conditions are varied. Inhibition levels determined under the conditions described herein represent a relative activity for the compounds tested under the specific conditions employed. The cell based assays are likely to show variability due to the complexity of the system and the sensitivity thereof to any changes in the assay conditions. […] Results for compounds that are tested and show substantially no inhibition below the highest tested concentration are represented as “-” in the tables below. In some instances, the compounds were not tested in all of the assays, or assay results were not valid, as indicated by NA in the tables below.

[4] = biological target: B-Raf V600E (Homo sapiens, UniProt P15056, V600E); test: B-Raf V600E kinase activity assay (AlphaScreen, biotin-MEK1 substrate); details: 100 μM ATP, 100 nM biotin-MEK1, 45 minutes at room temperature, read-out: Biochemical activity (IC50 μM) V600E
Procedure, shortened: as §1

Sequence of B-Raf V600E (P15056 whole entry V600E): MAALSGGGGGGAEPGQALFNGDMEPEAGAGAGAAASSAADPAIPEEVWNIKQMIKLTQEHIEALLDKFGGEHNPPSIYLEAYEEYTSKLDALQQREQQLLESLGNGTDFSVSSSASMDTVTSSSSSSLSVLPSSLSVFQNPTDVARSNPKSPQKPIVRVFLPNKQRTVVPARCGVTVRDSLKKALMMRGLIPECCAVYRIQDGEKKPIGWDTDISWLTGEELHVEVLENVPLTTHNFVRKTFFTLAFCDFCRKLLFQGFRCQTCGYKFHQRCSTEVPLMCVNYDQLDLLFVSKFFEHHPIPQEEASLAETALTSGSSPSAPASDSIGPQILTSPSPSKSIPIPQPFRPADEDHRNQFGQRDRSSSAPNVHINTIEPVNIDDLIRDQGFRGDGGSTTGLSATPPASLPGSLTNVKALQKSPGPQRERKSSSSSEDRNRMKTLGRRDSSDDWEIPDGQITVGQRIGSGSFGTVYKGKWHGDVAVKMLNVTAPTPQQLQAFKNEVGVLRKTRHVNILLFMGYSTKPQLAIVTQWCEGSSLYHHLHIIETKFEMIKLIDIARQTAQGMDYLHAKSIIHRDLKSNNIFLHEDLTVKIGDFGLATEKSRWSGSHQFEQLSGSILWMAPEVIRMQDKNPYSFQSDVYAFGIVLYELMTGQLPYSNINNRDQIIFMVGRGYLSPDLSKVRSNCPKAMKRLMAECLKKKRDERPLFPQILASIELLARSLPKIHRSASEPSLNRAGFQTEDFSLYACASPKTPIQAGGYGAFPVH
Sequence of B-Raf (P15056 whole entry): as the sequence (P15056 whole entry V600E) above, with E600V counted along it
Sequence of c-Raf-1 (P04049 whole entry Y340D/Y341D, form open): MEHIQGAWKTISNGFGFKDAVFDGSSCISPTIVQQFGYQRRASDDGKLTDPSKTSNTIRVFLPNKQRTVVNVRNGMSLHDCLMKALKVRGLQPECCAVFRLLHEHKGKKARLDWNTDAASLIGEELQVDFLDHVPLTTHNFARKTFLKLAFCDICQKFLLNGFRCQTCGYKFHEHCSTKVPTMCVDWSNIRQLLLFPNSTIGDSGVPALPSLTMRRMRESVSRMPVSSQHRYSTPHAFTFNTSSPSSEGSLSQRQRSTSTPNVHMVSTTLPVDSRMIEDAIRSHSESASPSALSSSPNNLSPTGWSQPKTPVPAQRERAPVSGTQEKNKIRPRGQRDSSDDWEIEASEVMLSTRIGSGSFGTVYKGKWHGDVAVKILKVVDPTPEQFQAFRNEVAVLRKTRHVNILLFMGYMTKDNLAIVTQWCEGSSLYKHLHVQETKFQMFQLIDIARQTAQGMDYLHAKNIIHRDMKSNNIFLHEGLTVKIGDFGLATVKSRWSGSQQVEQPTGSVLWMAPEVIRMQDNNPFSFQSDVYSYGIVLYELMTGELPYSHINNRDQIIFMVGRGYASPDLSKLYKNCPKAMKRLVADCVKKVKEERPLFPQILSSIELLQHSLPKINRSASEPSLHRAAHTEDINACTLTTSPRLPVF

| IC50 [1] [µM] | IC50 [2] [µM] | IC50 [3] [µM] | IC50 [4] [µM] | Structure (SMILES) |
| --- | --- | --- | --- | --- |
| < 0.1 | < 0.1 | > 1 | < 0.1 | CCCS(=O)(=O)Nc1ccc(F)c(C(=O)c2c[nH]c3ncc(-c4csc(-n5cccn5)n4)cc23)c1F [P-1103, Propane-1-sulfonic acid {2,4-difluoro-3-[5-(2-pyrazol-1-yl-thiazol-4-yl)-1H-pyrrolo[2,3-b]pyridine-3-carbonyl]-phenyl}-amide] |
| < 0.1 | < 0.1 | < 1 | < 0.1 | CCCS(=O)(=O)Nc1ccc(F)c(C(=O)c2c[nH]c3ncc(-c4cnc(N)cn4)cc23)c1F [P-1603, Propane-1-sulfonic acid {3-[5-(5-amino-pyrazin-2-yl)-1H-pyrrolo[2,3-b]pyridine-3-carbonyl]-2,4-difluoro-phenyl}-amide] |
| < 0.1 | < 0.1 | > 1 | < 0.1 | CCCS(=O)(=O)Nc1ccc(F)c(C(=O)c2c[nH]c3ncc(-c4csc(N(C)C)n4)cc23)c1F [P-1102, Propane-1-sulfonic acid {3-[5-(2-dimethylamino-thiazol-4-yl)-1H-pyrrolo[2,3-b]pyridine-3-carbonyl]-2,4-difluoro-phenyl}-amide] |
| < 0.1 | < 0.1 | < 1 | < 0.1 | CCCS(=O)(=O)Nc1ccc(F)c(C(=O)c2c[nH]c3ncc(-c4cnc(-n5cccn5)cn4)cc23)c1F [P-1601, Propane-1-sulfonic acid {2,4-difluoro-3-[5-(5-pyrazol-1-yl-pyrazin-2-yl)-1H-pyrrolo[2,3-b]pyridine-3-carbonyl]-phenyl}-amide] |
| < 0.1 | < 0.1 | < 1 | < 0.1 | CCCS(=O)(=O)Nc1ccc(F)c(C(=O)c2c[nH]c3ncc(-c4ccc5c(c4)CC(=O)N5)cc23)c1F [P-1703, Propane-1-sulfonic acid {2,4-difluoro-3-[5-(2-oxo-2,3-dihydro-1H-indol-5-yl)-1H-pyrrolo[2,3-b]pyridine-3-carbonyl]-phenyl}-amide] |
| < 0.1 | < 0.1 | > 1 | < 0.1 | CCCS(=O)(=O)Nc1ccc(F)c(C(=O)c2c[nH]c3ncc(-c4csc(-n5ccnc5)n4)cc23)c1F [P-1106, Propane-1-sulfonic acid {2,4-difluoro-3-[5-(2-imidazol-1-yl-thiazol-4-yl)-1H-pyrrolo[2,3-b]pyridine-3-carbonyl]-phenyl}-amide] |
| < 0.1 | < 0.1 | > 1 | < 0.1 | CCCS(=O)(=O)Nc1ccc(F)c(C(=O)c2c[nH]c3ncc(-c4ccccn4)cc23)c1F [P-1401, Propane-1-sulfonic acid [2,4-difluoro-3-(5-pyridin-2-yl-1H-pyrrolo[2,3-b]pyridine-3-carbonyl)-phenyl]-amide] |
| < 0.1 | < 0.1 | < 1 | < 0.1 | CCCS(=O)(=O)Nc1ccc(F)c(C(=O)c2c[nH]c3ncc(-c4cnc(-n5ccnc5)cn4)cc23)c1F [P-1602, Propane-1-sulfonic acid {2,4-difluoro-3-[5-(5-imidazol-1-yl-pyrazin-2-yl)-1H-pyrrolo[2,3-b]pyridine-3-carbonyl]-phenyl}-amide] |
| < 0.1 | < 0.1 | < 1 | < 0.1 | CCCS(=O)(=O)Nc1ccc(F)c(C(=O)c2c[nH]c3ncc(-c4ccc5scnc5c4)cc23)c1F [P-0013, Propane-1-sulfonic acid [3-(5-benzothiazol-5-yl-1H-pyrrolo[2,3-b]pyridine-3-carbonyl)-2,4-difluoro-phenyl]-amide] |
| < 0.1 | < 0.1 | > 1 | < 0.1 | CCCS(=O)(=O)Nc1ccc(F)c(C(=O)c2c[nH]c3ncc(C(=O)Nc4cccnc4)cc23)c1F [P-1801, 3-[2,6-Difluoro-3-(propane-1-sulfonylamino)-benzoyl]-1H-pyrrolo[2,3-b]pyridine-5-carboxylic acid pyridin-3-ylamide] |
| < 0.1 | < 0.1 | < 1 | < 0.1 | CCCS(=O)(=O)Nc1ccc(F)c(C(=O)c2c[nH]c3ncc(-c4cnn(-c5ncccn5)c4)cc23)c1F [P-1005, Propane-1-sulfonic acid {2,4-difluoro-3-[5-(1-pyrimidin-2-yl-1H-pyrazol-4-yl)-1H-pyrrolo[2,3-b]pyridine-3-carbonyl]-phenyl}-amide] |
| < 0.1 | < 0.1 | < 1 | < 0.1 | CCCS(=O)(=O)Nc1ccc(F)c(C(=O)c2c[nH]c3ncc(-c4ccc5[nH]nc(C)c5c4)cc23)c1F [P-0024, Propane-1-sulfonic acid {2,4-difluoro-3-[5-(3-methyl-1H-indazol-5-yl)-1H-pyrrolo[2,3-b]pyridine-3-carbonyl]-phenyl}-amide] |
| < 1 | < 1 | < 1 | < 1 | CCCS(=O)(=O)Nc1ccc(F)c(C(=O)c2c[nH]c3ncc(-c4cccc5[nH]ncc45)cc23)c1F [P-0009, Propane-1-sulfonic acid {2,4-difluoro-3-[5-(1H-indazol-4-yl)-1H-pyrrolo[2,3-b]pyridine-3-carbonyl]-phenyl}-amide] |
| < 0.1 | < 0.1 | < 1 | < 0.1 | CCCS(=O)(=O)Nc1ccc(F)c(C(=O)c2c[nH]c3ncc(-c4ccc5c(c4)CNC5=O)cc23)c1F [P-1701, Propane-1-sulfonic acid {2,4-difluoro-3-[5-(1-oxo-2,3-dihydro-1H-isoindol-5-yl)-1H-pyrrolo[2,3-b]pyridine-3-carbonyl]-phenyl}-amide] |
| < 0.1 | < 0.1 | < 1 | < 0.1 | CCCS(=O)(=O)Nc1ccc(F)c(C(=O)c2c[nH]c3ncc(-c4cn5ccccc5n4)cc23)c1F [P-0021, Propane-1-sulfonic acid [2,4-difluoro-3-(5-imidazo[1,2-a]pyridin-2-yl-1H-pyrrolo[2,3-b]pyridine-3-carbonyl)-phenyl]-amide] |
